Structures can show the parent of a compound that is named as a salt.
System: BxPC-3 tumours
Assay: In vivo BxPC-3 xenograft model, tumour growth
Set-up: species or system SCID mice
Conditions: 100 μL I.P. injection, Gem HCl 120 mg/kg (scaled clinical dose); FIG. 7
Experimental: All animals in these studies were treated humanely and in accordance with licensed protocols under the Animals (Scientific Procedures) Act 1986 (UK). BxPc-3 cells were maintained in RPMI 1640 media supplemented with 100 U/mL penicillin, […] streptomycin, and 10% fetal bovine serum (FBS) in a humidified 5% CO2 atmosphere at 37° C. Cells (1×10^6) were re-suspended in Matrigel® and implanted subcutaneously into the rear dorsum of SCID (C.B-17/IcrHan@Hsd-Prkdcscid) mice. Tumours reached treatable size within 3 weeks. Tumour measurements were taken daily using callipers. Once the tumours had reached an average volume of 150 mm^3 animals were randomly assigned into treatment groups. Animals were anaesthetised using isoflurane with medical grade oxygen as the carrier gas. […] As control groups, animals were treated with a 100 μL I.P injection of either (i) gemcitabine hydrochloride (120 mg/kg) or (ii) gemcitabine hydrochloride (120 mg/kg) and PTX (15 mg/kg). Ultrasound was applied directly to the tumour immediately following injection at an ultrasound frequency of 1 MHz, an ultrasound power density of 3.5 W/cm^2 and a duty cycle of 30% for 3.5 min. Tumour volume was measured using callipers and calculated using the formula: V=L×W×H/2.

Nc1ccn([C@@H]2O[C@H](CO)[C@@H](O)C2(F)F)c(=O)n1 [Gem HCl, gemcitabine hydrochloride]
tumour growth control: significantly controls tumour growth progression

Source: US20220233713A1, “SONODYNAMIC THERAPY” (priority 2019, published 2022)
